Experimental data taken from US7662851B2, “Use of specific cyklolignans” (Axelar AB, priority 2001, dated 2010).

Assays:
IR tyrosine kinase = biological target: T1, IR tyrosine kinase (Homo sapiens, UniProt P06213); assay: In vitro tyrosine kinase assay: substrate phosphorylation by IR, cell-free; type: biochemical; settings: FIG. 3
T1 construct: Immunoprecipitated IR from HepG2; endogenous in cells; host or cells: HepG2 hepatoma cells (immunoprecipitate)
Method: IGF-1R-catalyzed substrate phosphorylation of polyTyrGlu (pTG) was performed essentially as previously described [Parrizas M., et al., ibid., and Blum G., et al., ibid.]. Immunoprecipitated IR from HepG2, IGF-1R from P6 cell extract and immunodepleted supernatant to assay non-IGF-1R tyrosine kinases. The phosphorylated polymer substrate was probed with a purified phosphotyrosine specific monoclonal antibody conjugated to horseradish peroxidase (HARP). Color was developed with HRP chromogenic substrate o-phenylene-diamine dihydrochloride (OPD). The color was quantitated by spectrophotometry (ELISA reader) and reflects the relative amount of tyrosine kinase. The precipitate was immunoblotted with anti-bodies to IGF-1R and IR to verify the presence of the receptor. Serial dilutions were used to assay the optimal conditions with respect to the amount of IGF-1R and IR. The signal was linear for 30 minutes and was a function of IGF-1R concentration up to 75 ng/well. […] After spectrophotometry the IC50 values of inhibitors were determined using the Regression function of Statistica program.
Therefore we isolated the receptor and determined the effects of picropodophyllin on IGF-1R catalyzed substrate tyrosine phosphorylation and IGF-1R autophosphorylation in-vitro.

[1] = system: SK-MEL-2 melanoma cell line; assay: Cell viability (XTT, Cell proliferation kit II), SK-MEL-2; type: cell-based; settings: Homo sapiens, SK-MEL-2, 48 h
Method: Cell proliferation kit II (Roche Inc.) is based on colorimetric change of the yellow tetrazolium salt XTT in orange formazan dye by the respiratory chain of viable cells (Roehm, N W, et al., J Immunol Methods 142:257-265, 1991). Cells seeded at a concentration of 5000/well in 100 μl medium in a 96-well plate were treated with different drugs in the given concentration. After 24 or 48 h the cells were incubated, according to the manufacturer's protocol, with XTT labelling mixture. After 4 h the formazan dye is quantified using a scanning multiwell spectrophotometer with a 495-nm filter. The absorbance is directly correlated with the number of viable cells. The standard absorbance curve was drawn by means of untreated cells seeded at a concentration of from 1000 to 10 000 cells/well with an increasing rate of 1000 cells/well. All standards and experiments were performed in triplicates.
12 different types of cell lines were seeded in 96-well plates (medium volume in a well was 100 μl), at a concentration of 10,000 cells/cm^2 in Minimal Essential Medium supplemented with fetal calf serum. When the cells had reached a concentration of 65,000 cells/cm^2, they were treated with different doses of podophyllotoxin and picropodophyllin for 48 h. Cell viability was then assayed (see above). […]

T1 sequence (P06213 28-1382): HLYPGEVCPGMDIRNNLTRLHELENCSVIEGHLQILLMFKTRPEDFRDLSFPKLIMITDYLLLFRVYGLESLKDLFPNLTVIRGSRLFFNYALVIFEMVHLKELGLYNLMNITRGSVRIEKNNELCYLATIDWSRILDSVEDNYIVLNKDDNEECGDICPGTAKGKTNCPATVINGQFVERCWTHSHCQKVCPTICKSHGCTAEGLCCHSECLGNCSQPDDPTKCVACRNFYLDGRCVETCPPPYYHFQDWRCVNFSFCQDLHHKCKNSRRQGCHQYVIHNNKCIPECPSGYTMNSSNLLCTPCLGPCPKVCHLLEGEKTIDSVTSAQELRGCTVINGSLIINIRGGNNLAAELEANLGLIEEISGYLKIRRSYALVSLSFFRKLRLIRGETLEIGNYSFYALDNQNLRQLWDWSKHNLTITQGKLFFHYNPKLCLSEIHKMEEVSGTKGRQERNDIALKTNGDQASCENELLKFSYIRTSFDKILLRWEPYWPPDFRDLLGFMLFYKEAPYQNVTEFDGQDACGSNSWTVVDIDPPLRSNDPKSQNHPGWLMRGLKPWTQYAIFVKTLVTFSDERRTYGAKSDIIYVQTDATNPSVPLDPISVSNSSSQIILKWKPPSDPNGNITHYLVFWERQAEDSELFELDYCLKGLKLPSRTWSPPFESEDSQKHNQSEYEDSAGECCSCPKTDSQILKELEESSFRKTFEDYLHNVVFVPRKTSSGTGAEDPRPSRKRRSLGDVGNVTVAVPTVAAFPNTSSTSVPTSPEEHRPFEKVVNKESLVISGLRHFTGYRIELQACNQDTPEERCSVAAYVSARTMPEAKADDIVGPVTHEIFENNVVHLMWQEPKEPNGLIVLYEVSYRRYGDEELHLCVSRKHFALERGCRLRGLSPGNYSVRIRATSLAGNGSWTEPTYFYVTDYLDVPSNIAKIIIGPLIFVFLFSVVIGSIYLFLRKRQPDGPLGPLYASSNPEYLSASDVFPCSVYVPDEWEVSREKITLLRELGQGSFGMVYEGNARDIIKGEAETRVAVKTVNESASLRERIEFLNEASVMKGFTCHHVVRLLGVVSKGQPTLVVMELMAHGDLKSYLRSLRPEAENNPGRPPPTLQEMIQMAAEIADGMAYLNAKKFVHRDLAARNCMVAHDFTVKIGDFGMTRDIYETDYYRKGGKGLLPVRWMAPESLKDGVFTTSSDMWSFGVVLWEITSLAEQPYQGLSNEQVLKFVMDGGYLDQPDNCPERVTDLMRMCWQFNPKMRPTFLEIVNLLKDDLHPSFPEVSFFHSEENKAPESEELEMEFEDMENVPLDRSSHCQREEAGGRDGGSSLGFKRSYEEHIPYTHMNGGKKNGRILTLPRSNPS

Row | Compound | Interference with substrate phosphorylation of IR tyrosine kinase (IR tyrosine kinase) | EC50 [1]
1 | COc1cc([C@@H]2c3cc4c(cc3[C@H](O)[C@H]3COC(=O)[C@@H]23)OCO4)cc(OC)c1OC [Picropodophyllin, picropodophyllin] | failed to interfere | –
2 | COc1cc([C@@H]2c3cc4c(cc3[C@H](O)[C@H]3COC(=O)[C@H]23)OCO4)cc(OC)c1OC [Podophyllotoxin, podophyllotoxin] | – | 50 nM
